Assay results: US20210251955A1, “PREVENTION OF AGE RELATED CLONAL HEMATOPOIESIS AND DISEASES ASSOCIATED THEREWITH” (Yeda Research and Development Co. Ltd., priority 2018, published 2021)
“Also recorded” adds a separate entry of the source.

Columns and labels:
[1] = test system: panel of 18 genetically diverse AML cell lines; experiment: Cell viability upon sulfonamide exposure across a panel of 18 AML cell lines; format: cell-based
Description: (§1) The effects of indisulam and the sulfonamide analogue, E7820, were first examined across a panel of 18 genetically diverse AML cell lines.

[2] = test system: isogenic K562, TF-1 and NALM-6 cells expressing mutations in SF3B1, SRSF2, U2AF1; experiment: Growth inhibition of isogenic leukemia lines with or without spliceosomal hotspot mutations; format: cell-based; conditions: isogenic K562, TF-1, NALM-6
Method: (§2) (FIG. 4A) Sulfonamides bridge RBM39 to the CUL4-DDB1-DDA1-DCAF15 E3 ubiquitin ligase complex, leading to polyubiquitination and proteasomal degradation of RBM39. IC50 curves of the sulfonamide E7820 in isogenic (FIG. 4B) K562 and (FIG. 4C) NALM6 WT or mutant for SF3B1. (FIG. 4D) Western blots of RBM39 levels+[…] of the sulfonamides Indusulam or E7820 from the cells in (FIG. 4C).
(§3) FIGS. 5A-D illustrate the preferential response of spliceosomal mutant hematopoietic cells to indisulam. (FIG. 5A) IC50 plots of isogenic K562 (left) and NALM-6 (right) cells to indisulam. These are cell with introduction of a spliceosomal gene mutation into the endogenous locus. (FIG. 5B) Western blots of RBM39 in the K562 cells from (FIG. 5A) at increasing doses of indisulam. (FIG. 5C) Log10 IC50 waterfall plots of response of AML cell lines with naturally occurring mutations in splicing factors to indisulam. Red bars represent cells with naturally occurring mutations in splicing factors. (FIG. 5D) Bar plot of number of differential splicing events across parental, SF3B1^K700E/WT, and SRSF2^P95H/WT K562 cells. The numbers above each bar indicate number of differentially spliced events.
as §1

spliceosomal-mutant AML = conditions: Lee et al. Nat Med (2016); cited from earlier work
[3] = test system: spliceosomal-mutant leukemias; conditions: PDX, Lee et al. Nat Med (2016); cited from earlier work
[4] = test system: K562 cells (parental, SF3B1^K700E, SRSF2^P95H); experiment: RNA-sequencing of parental K562 and isogenic SF3B1^K700E and SRSF2^P95H lines, differential splicing; format: cell-based; conditions: for Splicing changes relative to DMSO treatment: at the IC50 of each drug in parental K562 cells, regardless of mutation status
Description: as §3
Identification and Quantification of Differential Splicing
Isoform ratios for all alternative splicing events were quantified using MISO v2.0. Constitutively spliced exons and introns were quantified using junction-spanning reads. The conditional knockin and knockout mice were compared in a pair-wise manner, and for each pair the analysis was restricted to splicing events with 20 or more reads supporting either or both isoforms, and where the event was alternatively spliced in the sample pair. […] The human AML samples were analyzed by calculating the median isoform ratios across all 28 SRSF2 wildtype samples, and comparing that in a pair-wise manner to each SRSF2 mutant sample, using the same methodology as for the knockin and knockout mice. The Mx1-Cre^+Srsf2^+/+ or Mx1-Cre^+Srsf2^P95H/+E7107-treated mice were compared in a pair-wise manner against the median isoform ratios of their vehicle-treated counterparts, using the same methodology. For the MLL-AF9 AML transformed mice there were sufficient replicates to do a group-based comparison within the Srsf2P95H and wildtype genotypes individually (N=5 for each genotype-treatment combination). E7107- and vehicle-treated mice were compared in a two-sided Wilcoxon rank-sum test, using the total number of isoform reads within each treatment group.
In parallel, RNA-seq was carried out of the same cell lines treated with E7107, a small molecule that inhibits splicing through impeding binding of SF3B1 to the branch point [Finci et al., Genes & Dev. (2018) 32: 309-320].
Thus, both genetic as well pharmacologic degradation of RBM39 disrupts splicing as well as other pathways required for leukemogenicity.

parental K562 cells = experiment: IC50 in parental K562 cells; format: cell-based; conditions: Homo sapiens
RBM39 = target: T1, RBM39 (Homo sapiens, UniProt Q14498+Q66K64); experiment: RBM39 protein levels (Western blot) in isogenic leukemia cell lines; format: cell-based
T1 construct: endogenous in cells; host or cells: isogenic K562 / NALM-6 (and TF-1) leukemia cells, wild type or with knock-in of spliceosomal gene mutations
Method: as §2, §3
The effects of indisulam and the sulfonamide analogue, E7820, were first examined across a panel of 18 genetically diverse AML cell lines. […]

[5] = test system: Srsf2^P95H/WT MLL-AF9 AML cells; experiment: In vitro viability (MTS) of isogenic murine MLL-AF9 AML cells, Srsf2 WT vs Srsf2 mutant; format: cell-based
Description: FIGS. 1A-E illustrate the effects of PRMT inhibition on splicing. (FIG. 1A) Diagram of the role of PRMT5 and the type I PRMTs in splicing regulation. PRMTs methylate arginines on splicing proteins to promote spliceosome assembly and are required for proper splicing function. IC50 curves of spliceosomal mutant acute myeloid leukemia cells or their WT counterparts exposed to (FIG. 1B) the PRMT5 inhibitor GSK591 or (FIG. 1C) the PRMT1 inhibitor MS-023. Western blots of (FIG. 1D) symmetric dimethyl arginine (SDMA) or (FIG. 1E) asymmetric dimethyl arginine (ADMA) from the cells in (FIG. 1B) and […] respectively.
FIG. 2 illustrates drug sensitivity of AML cells with SMMs or partial loss of PRMT5 to inhibitors of splicing, PRMTs, or LSD1. MLL-AF9 Srsf2^WT/WT; MLL-AF9 Srsf2^P95H/WT or MLL-AF9 Prmt5^+/− cells were treated for 7 days with the indicated compounds in 384 wells (5 increasing concentrations per compound). Viability at day 7 was scored by MTS assay and reported as the ratio over control treated cells (with equivalent dilution of DMSO). The experiment was conducted in biological triplicate, and each individual run was repeated in technical triplicate. […]
Of note, the SF3B1 inhibitor, E7107, was used in the same assays as a positive control. […] Viability at day 7 was scored by MTS assay and reported as the ratio over control treated cells (with equivalent dilution of DMSO). […]

[6] = test system: SF3B1 as well as SRSF2-mutant AML and chronic myelomonocytic leukemia (CMML); conditions: Seiler et al., Nature Medicine (2018); cited from earlier work

NS(=O)(=O)c1ccc(S(=O)(=O)Nc2cccc3c(Cl)c[nH]c23)cc1 [indisulam]
Sensitivity (cell viability) of most cell lines [1]: sub-micromolar sensitivity
Preferential sensitivity of spliceosomal mutant cells to growth inhibition over wild-type [2]: preferential effects; also recorded: preferentially sensitive

CC[C@H](O)[C@@H](C)[C@H]1O[C@@H]1C[C@@](C)(O)/C=C/C=C(\C)[C@H]1OC(=O)C[C@H](O)CC[C@@](C)(O)[C@@H](OC(=O)N2CCN(C3CCCCCC3)CC2)/C=C/[C@@H]1C [E7107]
Sensitivity of spliceosomal-mutant AML over isogenic WT in vivo (spliceosomal-mutant AML): differentially sensitive
Eradication of leukemia [3]: complete eradication could not be achieved
Human leukemic cell burden, mutant versus WT [3]: greater reduction in human leukemic cell burden
Splicing changes relative to DMSO treatment [4]: increased cassette exon skipping and intron retention

Cc1ccc(NS(=O)(=O)c2cccc(C#N)c2)c2[nH]cc(C#N)c12 [E7820]
IC50 (parental K562 cells): 1 µM
Sensitivity (cell viability) of most cell lines [1]: sub-micromolar sensitivity
Preferential sensitivity of spliceosomal mutant cells to growth inhibition over wild-type [2]: preferentially sensitive
Degradation of RBM39 (RBM39): dose-dependent degradation of RBM39
Differential splicing events in SF3B1^K700E cells versus SF3B1 wild-type ([4]; 1 μM E7820): greater number of differential splicing events
Splicing of SUPT6H, hnRNPH and SRSF10 mRNAs ([4]; E7820 exposure): intron retention that was most pronounced in spliceosomal mutant cells
Splicing changes relative to DMSO treatment [4]: increased cassette exon skipping and intron retention
Changes in splicing, E7820 versus E7107 ([4]; equipotent non-toxic doses, within each cell type and splicing category): greater changes in splicing

O=C(NC[C@H](O)CN1CCc2ccccc2C1)c1ccnc(NC2CCC2)c1 [GSK591]
Sensitivity of Srsf2-mutant cells versus wildtype [5]: more sensitive

H3B-8800
Preferential effects in spliceosomal-mutant disease [6]: preferential effects
Splicing fidelity [6]: dose-dependent reductions in splicing fidelity

CC(C)Oc1ccc(-c2c[nH]cc2CN(C)CCN)cc1 [MS-023]
Sensitivity of Srsf2-mutant cells versus wildtype [5]: more sensitive
